# Experimental data: PubChem BioAssay (NCI)
#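 GI50 marks 50% less growth. TGI: total growth inhibition.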
# Assays:
# Assay in all cases: inhibition of tumour cell growth, NCI panel, 384-well format
# A498 renal = test system: A498 renal
# A549 NSCLC = test system: A549 NSCLC
# ACHN renal = test system: ACHN renal
# BT-549 breast = test system: BT-549 breast
# CAKI-1 renal = test system: CAKI-1 renal
# COLO 205 colon = test system: COLO 205 colon
# DU-145 prostate = test system: DU-145 prostate
# EKVX NSCLC = test system: EKVX NSCLC
# HCC-2998 colon = test system: HCC-2998 colon
# HCT-116 colon = test system: HCT-116 colon
# HCT-15 colon = test system: HCT-15 colon
# HL-60(TB) leukemia = test system: HL-60(TB) leukemia
# HOP-62 NSCLC = test system: HOP-62 NSCLC
# HOP-92 NSCLC = test system: HOP-92 NSCLC
# HS 578T breast = test system: HS 578T breast
# HT29 colon = test system: HT29 colon
# IGROV1 ovarian = test system: IGROV1 ovarian
# KM12 colon = test system: KM12 colon
# LOX IMVI melanoma = test system: LOX IMVI melanoma
# M14 melanoma = test system: M14 melanoma
# MALME-3M melanoma = test system: MALME-3M melanoma
# MCF7 breast = test system: MCF7 breast
# MDA-MB-435 melanoma = test system: MDA-MB-435 melanoma
# MDA-MB-468 breast = test system: MDA-MB-468 breast
# MOLT-4 leukemia = test system: MOLT-4 leukemia
# NCI-H226 lung = test system: NCI-H226 lung
# NCI-H23 lung = test system: NCI-H23 lung
# NCI-H322M lung = test system: NCI-H322M lung
# NCI-H460 NSCLC = test system: NCI-H460 NSCLC
# NCI-H522 lung = test system: NCI-H522 lung
# NCI/ADR-RES ovarian = test system: NCI/ADR-RES ovarian
# OVCAR-3 ovarian = test system: OVCAR-3 ovarian
# OVCAR-4 ovarian = test system: OVCAR-4 ovarian
# OVCAR-5 ovarian = test system: OVCAR-5 ovarian
# OVCAR-8 ovarian = test system: OVCAR-8 ovarian
# PC-3 prostate = test system: PC-3 prostate
# RPMI-8226 leukemia = test system: RPMI-8226 leukemia
# RXF 393 renal = test system: RXF 393 renal
# SF-268 CNS = test system: SF-268 CNS
# SF-295 CNS = test system: SF-295 CNS
# SF-539 CNS = test system: SF-539 CNS
# SK-MEL-28 melanoma = test system: SK-MEL-28 melanoma
# SK-MEL-5 melanoma = test system: SK-MEL-5 melanoma
# SK-OV-3 ovarian = test system: SK-OV-3 ovarian
# SN12C renal = test system: SN12C renal
# SNB-19 CNS = test system: SNB-19 CNS
# SNB-75 CNS = test system: SNB-75 CNS
# SR leukemia = test system: SR leukemia
# T-47D breast = test system: T-47D breast
# TK-10 renal = test system: TK-10 renal
# U251 glioblastoma = test system: U251 glioblastoma
# UACC-257 melanoma = test system: UACC-257 melanoma
# UACC-62 melanoma = test system: UACC-62 melanoma
# CCRF-CEM leukemia = test system: CCRF-CEM leukemia
# SW-620 colon = test system: SW-620 colon
# UO-31 renal = test system: UO-31 renal
structure (smiles),measurement,setting,value
CCc1cnn2c(NCc3ccc[n+]([O-])c3)cc(N3CCCC[C@H]3CCO)nc12,GI50,A498 renal,< 10 nM
same,TGI,A498 renal,< 10 nM
same,GI50,A549 NSCLC,< 10 nM
same,TGI,A549 NSCLC,> 100000 nM
same,GI50,ACHN renal,< 10 nM
same,TGI,ACHN renal,< 10 nM
same,GI50,BT-549 breast,< 10 nM
same,TGI,BT-549 breast,< 10 nM
same,GI50,CAKI-1 renal,< 10 nM
same,TGI,CAKI-1 renal,> 100000 nM
same,GI50,COLO 205 colon,< 10 nM
same,TGI,COLO 205 colon,< 10 nM
same,GI50,DU-145 prostate,< 10 nM
same,TGI,DU-145 prostate,< 10 nM
same,GI50,EKVX NSCLC,< 10 nM
same,TGI,EKVX NSCLC,< 10 nM
same,GI50,HCC-2998 colon,< 10 nM
same,TGI,HCC-2998 colon,< 10 nM
same,GI50,HCT-116 colon,< 10 nM
same,TGI,HCT-116 colon,> 100000 nM
same,GI50,HCT-15 colon,< 10 nM
same,TGI,HCT-15 colon,21.8 nM
same,GI50,HL-60(TB) leukemia,< 10 nM
same,TGI,HL-60(TB) leukemia,< 10 nM
same,GI50,HOP-62 NSCLC,< 10 nM
same,TGI,HOP-62 NSCLC,< 10 nM
same,GI50,HOP-92 NSCLC,< 10 nM
same,TGI,HOP-92 NSCLC,> 100000 nM
same,GI50,HS 578T breast,< 10 nM
same,TGI,HS 578T breast,< 10 nM
same,GI50,HT29 colon,< 10 nM
same,TGI,HT29 colon,< 10 nM
same,GI50,IGROV1 ovarian,< 10 nM
same,TGI,IGROV1 ovarian,< 10 nM
same,GI50,KM12 colon,< 10 nM
same,TGI,KM12 colon,> 100000 nM
same,GI50,LOX IMVI melanoma,< 10 nM
same,TGI,LOX IMVI melanoma,< 10 nM
same,GI50,M14 melanoma,< 10 nM
same,TGI,M14 melanoma,< 10 nM
same,GI50,MALME-3M melanoma,< 10 nM
same,TGI,MALME-3M melanoma,< 10 nM
same,GI50,MCF7 breast,< 10 nM
same,TGI,MCF7 breast,> 100000 nM
same,GI50,MDA-MB-435 melanoma,< 10 nM
same,TGI,MDA-MB-435 melanoma,< 10 nM
same,GI50,MDA-MB-468 breast,< 10 nM
same,TGI,MDA-MB-468 breast,< 10 nM
same,GI50,MOLT-4 leukemia,< 10 nM
same,TGI,MOLT-4 leukemia,< 10 nM
same,GI50,NCI-H226 lung,< 10 nM
same,TGI,NCI-H226 lung,< 10 nM
same,GI50,NCI-H23 lung,< 10 nM
same,TGI,NCI-H23 lung,< 10 nM
same,GI50,NCI-H322M lung,< 10 nM
same,TGI,NCI-H322M lung,< 10 nM
same,GI50,NCI-H460 NSCLC,< 10 nM
same,TGI,NCI-H460 NSCLC,< 10 nM
same,GI50,NCI-H522 lung,< 10 nM
same,TGI,NCI-H522 lung,< 10 nM
same,GI50,NCI/ADR-RES ovarian,41.3 nM
same,TGI,NCI/ADR-RES ovarian,250 nM
same,GI50,OVCAR-3 ovarian,< 10 nM
same,TGI,OVCAR-3 ovarian,< 10 nM
same,GI50,OVCAR-4 ovarian,< 10 nM
same,TGI,OVCAR-4 ovarian,< 10 nM
same,GI50,OVCAR-5 ovarian,< 10 nM
same,TGI,OVCAR-5 ovarian,< 10 nM
same,GI50,OVCAR-8 ovarian,< 10 nM
same,TGI,OVCAR-8 ovarian,< 10 nM
same,GI50,PC-3 prostate,< 10 nM
same,TGI,PC-3 prostate,< 10 nM
same,GI50,RPMI-8226 leukemia,< 10 nM
same,TGI,RPMI-8226 leukemia,< 10 nM
same,GI50,RXF 393 renal,< 10 nM
same,TGI,RXF 393 renal,< 10 nM
same,GI50,SF-268 CNS,< 10 nM
same,TGI,SF-268 CNS,< 10 nM
same,GI50,SF-295 CNS,< 10 nM
same,TGI,SF-295 CNS,> 100000 nM
same,GI50,SF-539 CNS,< 10 nM
same,TGI,SF-539 CNS,< 10 nM
same,GI50,SK-MEL-28 melanoma,< 10 nM
same,TGI,SK-MEL-28 melanoma,< 10 nM
same,GI50,SK-MEL-5 melanoma,< 10 nM
same,TGI,SK-MEL-5 melanoma,< 10 nM
same,GI50,SK-OV-3 ovarian,< 10 nM
same,TGI,SK-OV-3 ovarian,> 100000 nM
same,GI50,SN12C renal,< 10 nM
same,TGI,SN12C renal,< 10 nM
same,GI50,SNB-19 CNS,< 10 nM
same,TGI,SNB-19 CNS,< 10 nM
same,GI50,SNB-75 CNS,< 10 nM
same,TGI,SNB-75 CNS,< 10 nM
same,GI50,SR leukemia,< 10 nM
same,TGI,SR leukemia,< 10 nM
same,GI50,T-47D breast,< 10 nM
same,TGI,T-47D breast,> 100000 nM
same,GI50,TK-10 renal,< 10 nM
same,TGI,TK-10 renal,< 10 nM
same,GI50,U251 glioblastoma,< 10 nM
same,TGI,U251 glioblastoma,< 10 nM
same,GI50,UACC-257 melanoma,< 10 nM
same,TGI,UACC-257 melanoma,< 10 nM
same,GI50,UACC-62 melanoma,< 10 nM
same,TGI,UACC-62 melanoma,< 10 nM
CC(C)(C)c1cc(NC(=O)Nc2ccc(-c3cn4c(n3)sc3cc(OCCN5CCOCC5)ccc34)cc2)no1,GI50,A498 renal,2110 nM
same,TGI,A498 renal,6480 nM
same,GI50,A549 NSCLC,4970 nM
same,TGI,A549 NSCLC,> 100000 nM
same,GI50,ACHN renal,7130 nM
same,TGI,ACHN renal,> 100000 nM
same,GI50,CAKI-1 renal,3680 nM
same,TGI,CAKI-1 renal,> 100000 nM
same,GI50,CCRF-CEM leukemia,459 nM
same,TGI,CCRF-CEM leukemia,> 100000 nM
same,GI50,COLO 205 colon,> 100000 nM
same,TGI,COLO 205 colon,> 100000 nM
same,GI50,DU-145 prostate,> 100000 nM
same,TGI,DU-145 prostate,> 100000 nM
same,GI50,HCC-2998 colon,> 100000 nM
same,TGI,HCC-2998 colon,> 100000 nM
same,GI50,HCT-15 colon,4540 nM
same,TGI,HCT-15 colon,> 100000 nM
same,GI50,HL-60(TB) leukemia,> 100000 nM
same,TGI,HL-60(TB) leukemia,> 100000 nM
same,GI50,HOP-62 NSCLC,1270 nM
same,TGI,HOP-62 NSCLC,3540 nM
same,GI50,HS 578T breast,461 nM
same,TGI,HS 578T breast,3740 nM
same,GI50,IGROV1 ovarian,4980 nM
same,TGI,IGROV1 ovarian,> 100000 nM
same,GI50,KM12 colon,559 nM
same,TGI,KM12 colon,> 100000 nM
same,GI50,LOX IMVI melanoma,2380 nM
same,TGI,LOX IMVI melanoma,> 100000 nM
same,GI50,MALME-3M melanoma,1890 nM
same,TGI,MALME-3M melanoma,> 100000 nM
same,GI50,MCF7 breast,1040 nM
same,TGI,MCF7 breast,> 100000 nM
same,GI50,MDA-MB-435 melanoma,> 100000 nM
same,TGI,MDA-MB-435 melanoma,> 100000 nM
same,GI50,MDA-MB-468 breast,3170 nM
same,TGI,MDA-MB-468 breast,8590 nM
same,GI50,MOLT-4 leukemia,412 nM
same,TGI,MOLT-4 leukemia,> 100000 nM
same,GI50,NCI-H226 lung,3820 nM
same,TGI,NCI-H226 lung,> 100000 nM
same,GI50,NCI-H23 lung,684 nM
same,TGI,NCI-H23 lung,> 100000 nM
same,GI50,NCI-H322M lung,2990 nM
same,TGI,NCI-H322M lung,> 100000 nM
same,GI50,NCI/ADR-RES ovarian,> 100000 nM
same,TGI,NCI/ADR-RES ovarian,> 100000 nM
same,GI50,OVCAR-3 ovarian,3030 nM
same,TGI,OVCAR-3 ovarian,> 100000 nM
same,GI50,OVCAR-5 ovarian,> 100000 nM
same,TGI,OVCAR-5 ovarian,> 100000 nM
same,GI50,PC-3 prostate,1630 nM
same,TGI,PC-3 prostate,> 100000 nM
same,GI50,RXF 393 renal,184 nM
same,TGI,RXF 393 renal,571 nM
same,GI50,SF-268 CNS,584 nM
same,TGI,SF-268 CNS,2550 nM
same,GI50,SF-295 CNS,1120 nM
same,TGI,SF-295 CNS,> 100000 nM
same,GI50,SF-539 CNS,1080 nM
same,TGI,SF-539 CNS,3170 nM
same,GI50,SK-MEL-28 melanoma,12400 nM
same,TGI,SK-MEL-28 melanoma,> 100000 nM
same,GI50,SK-OV-3 ovarian,1670 nM
same,TGI,SK-OV-3 ovarian,> 100000 nM
same,GI50,SNB-19 CNS,3370 nM
same,TGI,SNB-19 CNS,> 100000 nM
same,GI50,SNB-75 CNS,1410 nM
same,TGI,SNB-75 CNS,4700 nM
same,GI50,SW-620 colon,> 100000 nM
same,TGI,SW-620 colon,> 100000 nM
same,GI50,T-47D breast,94 nM
same,TGI,T-47D breast,450 nM
same,GI50,UACC-257 melanoma,4090 nM
same,TGI,UACC-257 melanoma,> 100000 nM
same,GI50,UO-31 renal,> 100000 nM
same,TGI,UO-31 renal,> 100000 nM
